Patent US20250129070A1, “BIFUNCTIONAL ANDROGEN RECEPTOR COMPOUNDS” (priority 2023, published 2025)

Experiments:
VCaP cells = test: VCaP growth inhibition assay; format: cell-based; conditions: 30 pM R1881, 9 days, CTG
Procedure, shortened: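 VCaP cells in phenol red-free DMEM/5% CSS, pre-incubated 72 h, then stimulated with R1881 (final 30 pM) and treated with 1:5 serial dilutions (final 100 nM to 10 fM) for 9 days at 37 °C. Viability by CellTiter-Glo luminescence; IC50 from 4-parameter logistic fit of RLU vs concentration.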

AR / CBP ternary complex = test: Ternary complex formation assay (sandwich ELISA, AR capture / CBP detection) in VCaP cell lysates; format: cell-based; conditions: 1.5 hours treatment, sandwich ELISA (AR capture, CBP or p300 detection)
Procedure, shortened: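 VCaP cells (50K/well, 5% charcoal-stripped FBS, ≥3 days) treated with bifunctional compound for 1.5 h, then lysed 30 min at 4 °C. AR captured on anti-AR (AR 441) plates; bound CBP or p300 detected by rabbit mAb plus HRP secondary. QuantaRed chemifluorescence read at ex 570/em 585, immediately and at 5 and 15 min.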

IC50 (VCaP cells) [nM]	EC50 (AR / CBP ternary complex) [nM]	Structure (SMILES)
≤ 0.1	< 1	CC(=O)N1CCc2c(c(N3CCCc4cc(-c5cnn(C)c5)c(C(F)F)cc43)nn2C2CCN(CCC3CCN(c4ncc(C(=O)NC5C(C)(C)C(Oc6ccc(C#N)c(Cl)c6)C5(C)C)cn4)CC3)CC2)C1 (stereo not drawn) [Compound 174, 2-[4-[2-[4-[5-acetyl-3-[7-(difluoromethyl)-6-(1-methylpyrazol-4-yl)-3,4-dihydro-2H-quinolin-1-yl]-6,7-dihydro-4H-pyrazolo[4,3-c]pyridin-1-yl]-1-piperidyl]ethyl]-1-piperidyl]-N-[3-(3-chloro-4-cyano-phenoxy)-2,2,4,4-tetramethyl-cyclobutyl]pyrimidine-5-carboxamide]
≤ 0.1	< 1	COc1cc(OC2C(C)(C)C(NC(=O)c3ccc(N4CCC(CN5CCC(n6nc(N7CCCc8cc(-c9cnn(C)c9)c(C(F)F)cc87)c7c6CCN(C(C)=O)C7)CC5)C(OC)C4)cc3)C2(C)C)ccc1C#N (stereo not drawn) [Compound 332, 4-[4-[[4-[5-acetyl-3-[7-(difluoromethyl)-6-(1-methylpyrazol-4-yl)-3,4-dihydro-2H-quinolin-1-yl]-6,7-dihydro-4H-pyrazolo[4,3-c]pyridin-1-yl]-1-piperidyl]methyl]-3-methoxy-1-piperidyl]-N-[3-(4-cyano-3-methoxy-phenoxy)-2,2,4,4-tetramethyl-cyclobutyl]benzamide]
0.1 to 1	< 1	COc1cc(OC2C(C)(C)C(NC(=O)c3ccc(N4CCC(CN5CCC(n6nc(N7CCCc8cc(-c9cnn(C)c9)c(C)cc87)c7c6CCN(C(C)=O)C7)CC5)C(C)(C)C4)cc3)C2(C)C)ccc1C#N (stereo not drawn) [Compound 447, 4-[4-[[4-[5-acetyl-3-[7-methyl-6-(1-methylpyrazol-4-yl)-3,4-dihydro-2H-quinolin-1-yl]-6,7-dihydro-4H-pyrazolo[4,3-c]pyridin-1-yl]-1-piperidyl]methyl]-3,3-dimethyl-1-piperidyl]-N-[3-(4-cyano-3-methoxy-phenoxy)-2,2,4,4-tetramethyl-cyclobutyl]benzamide]
0.1 to 1	< 1	COc1cc(OC2C(C)(C)C(NC(=O)c3ccc(N4CCC(N5CCC(n6nc(N7CCCc8cc(-c9cnn(C)c9)c(C(F)F)cc87)c7c6CCN(C(C)=O)C7)CC5)C(C)C4)cc3)C2(C)C)ccc1C#N (stereo not drawn) [Compound 304, 4-[4-[4-[5-acetyl-3-[7-(difluoromethyl)-6-(1-methylpyrazol-4-yl)-3,4-dihydro-2H-quinolin-1-yl]-6,7-dihydro-4H-pyrazolo[4,3-c]pyridin-1-yl]-1-piperidyl]-3-methyl-1-piperidyl]-N-[3-(4-cyano-3-methoxy-phenoxy)-2,2,4,4-tetramethyl-cyclobutyl]benzamide]
≤ 0.1	< 1	CC(=O)N1CCc2c(c(N3CCCc4cc(-c5cnn(C)c5)c(C(F)F)cc43)nn2C2CCC(N(C)C3CCN(c4ncc(C(=O)NC5C(C)(C)C(Oc6ccc(C#N)c(Cl)c6)C5(C)C)cn4)CC3)CC2)C1 (stereo not drawn) [Compound 284, 2-[4-[[4-[5-acetyl-3-[7-(difluoromethyl)-6-(1-methylpyrazol-4-yl)-3,4-dihydro-2H-quinolin-1-yl]-6,7-dihydro-4H-pyrazolo[4,3-c]pyridin-1-yl]cyclohexyl]-methyl-amino]-1-piperidyl]-N-[3-(3-chloro-4-cyano-phenoxy)-2,2,4,4-tetramethyl-cyclobutyl]pyrimidine-5-carboxamide]
1 to 100	< 1	CC(=O)N1CCc2c(c(-c3cccc4cc(-c5ccc(COc6ncc(C(=O)NC7C(C)(C)C(Oc8ccc(C#N)c(Cl)c8)C7(C)C)cn6)nc5)ncc34)nn2C2CCOCC2)C1 (stereo not drawn) [Compound 71, 2-[[5-[8-(5-acetyl-1-tetrahydropyran-4-yl-6,7-dihydro-4H-pyrazolo[4,3-c]pyridin-3-yl)-3-isoquinolyl]-2-pyridyl]methoxy]-N-[3-(3-chloro-4-cyano-phenoxy)-2,2,4,4-tetramethyl-cyclobutyl]pyrimidine-5-carboxamide]
0.1 to 1	< 1	COc1cc(OC2C(C)(C)C(NC(=O)c3ccc(N4CCC(N5CCC6(CC5)CC(n5nc(N7CCCc8cc(-c9cnn(C)c9)c(C(F)F)cc87)c7c5CCN(C(C)=O)C7)C6)CC4)cc3)C2(C)C)ccc1C#N (stereo not drawn) [Compound 374, 4-[4-[2-[5-acetyl-3-[7-(difluoromethyl)-6-(1-methylpyrazol-4-yl)-3,4-dihydro-2H-quinolin-1-yl]-6,7-dihydro-4H-pyrazolo[4,3-c]pyridin-1-yl]-7-azaspiro[3.5]nonan-7-yl]-1-piperidyl]-N-[3-(4-cyano-3-methoxy-phenoxy)-2,2,4,4-tetramethyl-cyclobutyl]benzamide]
0.1 to 1	< 1	CC(=O)N1CCc2c(c(N3CCCc4cc(-c5cnn(C)c5)c(C(F)F)cc43)nn2CCCOC2CCN(c3ncc(C(=O)NC4C(C)(C)C(Oc5ccc(C#N)c(Cl)c5)C4(C)C)cn3)CC2)C1 (stereo not drawn) [Compound 9, 2-[4-[3-[5-acetyl-3-[7-(difluoromethyl)-6-(1-methylpyrazol-4-yl)-3,4-dihydro-2H-quinolin-1-yl]-6,7-dihydro-4H-pyrazolo[4,3-c]pyridin-1-yl]propoxy]-1-piperidyl]-N-[3-(3-chloro-4-cyano-phenoxy)-2,2,4,4-tetramethyl-cyclobutyl]pyrimidine-5-carboxamide]
1 to 100	1 to 10	CN1C(=O)CCc2cc(N3CCCc4cc(-c5ccc(CCC6CCN(c7ncc(C(=O)NC8C(C)(C)C(Oc9ccc(C#N)c(Cl)c9)C8(C)C)cn7)CC6)nc5)ncc43)ccc21 (stereo not drawn) [Compound 240, N-[3-(3-chloro-4-cyano-phenoxy)-2,2,4,4-tetramethyl-cyclobutyl]-2-[4-[2-[5-[1-(1-methyl-2-oxo-3,4-dihydroquinolin-6-yl)-3,4-dihydro-2H-1,7-naphthyridin-6-yl]-2-pyridyl]ethyl]-1-piperidyl]pyrimidine-5-carboxamide]
> 100	> 100	C[C@@H]1CC(=O)Nc2cccc(-c3ccc4c(c3)c(-c3cnn(C)c3)nn4CCCN3CCN(c4ncc(C(=O)NC5C(C)(C)C(Oc6ccc(C#N)c(Cl)c6)C5(C)C)cn4)CC3)c2N1 (stereo partly drawn) [Compound 55, N-[3-(3-chloro-4-cyano-phenoxy)-2,2,4,4-tetramethyl-cyclobutyl]-2-[4-[3-[5-[(4R)-4-methyl-2-oxo-1,3,4,5-tetrahydro-1,5-benzodiazepin-6-yl]-3-(1-methylpyrazol-4-yl)indazol-1-yl]propyl]piperazin-1-yl]pyrimidine-5-carboxamide]
≤ 0.1	< 1	CC(=O)N1CCc2c(c(-c3cccc4cc(-c5cnn(CC6CC7(C6)CN(c6ncc(C(=O)NC8C(C)(C)C(Oc9ccc(C#N)c(Cl)c9)C8(C)C)cn6)C7)c5)ncc34)nn2C2CCOCC2)C1 (stereo not drawn) [Compound 223, 2-[6-[[4-[8-(5-acetyl-1-tetrahydropyran-4-yl-6,7-dihydro-4H-pyrazolo[4,3-c]pyridin-3-yl)-3-isoquinolyl]pyrazol-1-yl]methyl]-2-azaspiro[3.3]heptan-2-yl]-N-[3-(3-chloro-4-cyano-phenoxy)-2,2,4,4-tetramethyl-cyclobutyl]pyrimidine-5-carboxamide]
0.1 to 1	1 to 10	CC(=O)N1CCc2c(c(N3CCCc4cc(-c5cnn(C)c5)c(C(F)F)cc43)nn2C2CCN(c3ncc(C(=O)NC4C(C)(C)C(Oc5ccc(C#N)c(Cl)c5)C4(C)C)cn3)CC2)C1 (stereo not drawn) [Compound 95, 2-[4-[5-acetyl-3-[7-(difluoromethyl)-6-(1-methylpyrazol-4-yl)-3,4-dihydro-2H-quinolin-1-yl]-6,7-dihydro-4H-pyrazolo[4,3-c]pyridin-1-yl]-1-piperidyl]-N-[3-(3-chloro-4-cyano-phenoxy)-2,2,4,4-tetramethyl-cyclobutyl]pyrimidine-5-carboxamide]
0.1 to 1	< 1	CC(=O)N1CCc2c(c(Nc3ccc(-c4cnn(C)c4)cc3F)nn2C2CCN(C(=O)CC3CCN(c4ncc(C(=O)NC5C(C)(C)C(Oc6ccc(C#N)c(Cl)c6)C5(C)C)cn4)CC3)CC2)C1 (stereo not drawn) [Compound 178, 2-[4-[2-[4-[5-acetyl-3-[2-fluoro-4-(1-methylpyrazol-4-yl)anilino]-6,7-dihydro-4H-pyrazolo[4,3-c]pyridin-1-yl]-1-piperidyl]-2-oxo-ethyl]-1-piperidyl]-N-[3-(3-chloro-4-cyano-phenoxy)-2,2,4,4-tetramethyl-cyclobutyl]pyrimidine-5-carboxamide]

Structure (SMILES)	IC50 (VCaP cells) [nM]	EC50 (AR / CBP ternary complex) [nM]
COc1cc(OC2C(C)(C)C(NC(=O)c3ccc(N4CC5CC4CC5CN4CCC(n5nc(N6CCCc7cc(-c8cnn(C)c8)c(C(F)F)cc76)c6c5CCN(C(C)=O)C6)CC4)cc3)C2(C)C)ccc1C#N (stereo not drawn) [Compound 255, 4-[5-[[4-[5-acetyl-3-[7-(difluoromethyl)-6-(1-methylpyrazol-4-yl)-3,4-dihydro-2H-quinolin-1-yl]-6,7-dihydro-4H-pyrazolo[4,3-c]pyridin-1-yl]-1-piperidyl]methyl]-2-azabicyclo[2.2.1]heptan-2-yl]-N-[3-(4-cyano-3-methoxy-phenoxy)-2,2,4,4-tetramethyl-cyclobutyl]benzamide]	0.1 to 1	< 1
COC(=O)N1c2ccc3c(nc(Cc4ccccc4)n3[C@@H]3CCC[C@@H](C(=O)N4CCN(c5ncc(C(=O)NC6C(C)(C)C(Oc7ccc(C#N)c(Cl)c7)C6(C)C)cn5)CC4)C3)c2CC[C@@H]1C (stereo partly drawn) [Compound 127, methyl (7S)-2-benzyl-3-[(1R,3R)-3-[4-[5-[[3-(3-chloro-4-cyano-phenoxy)-2,2,4,4-tetramethyl-cyclobutyl]carbamoyl]pyrimidin-2-yl]piperazine-1-carbonyl]cyclohexyl]-7-methyl-8,9-dihydro-7H-imidazo[4,5-f]quinoline-6-carboxylate]	≤ 0.1	< 1
